Tests used:
Format in all cases: cell-based
HT29 [1] = assay: GI50 by clonogenic assay; details: Homo sapiens
Experimental: (§1) For colonogenic assay, the compounds were tested at 4 concentrations for 1 week or 2 weeks on 4 colon cancer cell lines. The compounds, concentrations, colon cancer cell line panel and end time point tested are the following: • CBG: 0 μM, 10 μM, 20 μM, 40 μM, and 80 μM. • Compound 1: 0 μM, 5 μM, 7.5 μM, 10 μM, and 20 μM. • Compound 2: 0 μM, 10 μM, 20 μM, 40 μM, and 80 μM. • Colon cancer cell line panel and end time point: SW620, HCT15, HCT116, 1 week; HT29, 2 weeks
(§2) Four colon cancer cell lines of SW620, HCT15, HT29, and HCT116 were included in the colon cancer cell line panel.
(§3) CBG, compound 1 and compound 2 were dissolved in DMSO at a concentration of 10 mM and stored at −20° C.
(§4) Evaluation of DM compounds treatment-induced growth inhibition was performed to determine the GI50 of four colon cancer cell lines with MTS assay or clonogenic assay. Each experiment was repeated in triplicate. In GraphPad Prism, data were log-transformed and fit with a nonlinear curve to calculate the GI50.
(§5) Clonogenic assay. cells were plated at 6 well plates at a density of 2,500 cells per well. After 24 hours, cells were treated with DM compounds at increasing concentrations or DMSO vehicle and incubated for 1 week or 2 weeks. Cells were then fixed and stained with 1% crystal violet (Sigma-Aldrich) solution. Quantification was performed using ImageJ. Each experiment was repeated in triplicate. In GraphPad Prism, data were log-transformed and fit with a nonlinear curve to calculate the GI50.

SW620 [2] = assay: GI50 by clonogenic assay; details: Homo sapiens
Experimental: as §1, §2, §3, §4, §5

HCT116 [3] = assay: GI50 by clonogenic assay; details: Homo sapiens
Experimental: as §1, §2, §3, §4, §5

HCT15 [4] = assay: GI50 by clonogenic assay; details: Homo sapiens
Experimental: as §1, §2, §3, §4, §5

HT29 [5] = assay: GI50 by MTS assay; details: Homo sapiens, HT-29
Experimental: (§6) For MTS assay, the compounds have been tested at 8 concentrations on 4 colon cancer cell lines for 48 hours. The compounds, concentrations and colon cancer cell line panel tested are the following: • CBG: 0 μM, 1.25 μM, 2.5 μM, 5 μM, 10 μM, 20 μM, 40 μM, and 80 μM. • Compound 1: 0 μM, 1.25 μM, 2.5 μM, 5 μM, 10 μM, 20 μM, 40 μM, and 80 μM. • Compound 2: 0 μM, 1.25 μM, 2.5 μM, 5 μM, 10 μM, 20 μM, 40 μM, and 80 μM. • Colon cancer cell line panel: SW620, HCT15, HT29, HCTl16
as §2, §3, §4
(§7) MTS assay. cells were plated at 96 well plates at a density of 1,000 cells per well. After 24 hours, cells were treated with DM compounds at increasing concentrations or DMSO vehicle and incubated for 48 hours. 20 μl of MTS reagent (Promega) was then added and incubated for 2 hours. The absorbance was measured with a microplate reader at 490 nm. Each experiment was repeated in triplicate. In GraphPad Prism, data were log-transformed and fit with a nonlinear curve to calculate the GI50.

SW620 [6] = assay: GI50 by MTS assay; details: Homo sapiens, SW-620
Experimental: as §6, §2, §3, §4, §7

HCT116 [7] = assay: GI50 by MTS assay; details: Homo sapiens, HCT-116
Experimental: as §6, §2, §3, §4, §7

HCT15 [8] = assay: GI50 by MTS assay; details: Homo sapiens, HCT-15
Experimental: as §6, §2, §3, §4, §7

[9] = HT-29, 336 h, HT29 cells, 2 weeks, read-out: GI50 (clonogenic assay)
[10] = HT-29, clonogenic assay, HT29, average of N1-N3, read-out: GI50 AVG
[11] = HT-29, clonogenic assay, HT29, replicate N1, read-out: GI50 N1
[12] = HT-29, clonogenic assay, HT29, replicate N2, read-out: GI50 N2
[13] = HT-29, clonogenic assay, HT29, replicate N3, read-out: GI50 N3
[14] = SW-620, 168 h, SW620 cells, 1 week, read-out: GI50 (clonogenic assay)
[15] = SW-620, clonogenic assay, SW620, average of N1-N3, read-out: GI50 AVG
[16] = SW-620, clonogenic assay, SW620, replicate N1, read-out: GI50 N1
[17] = SW-620, clonogenic assay, SW620, replicate N2, read-out: GI50 N2
[18] = SW-620, clonogenic assay, SW620, replicate N3, read-out: GI50 N3
[19] = HCT-116, 168 h, HCT116 cells, 1 week, read-out: GI50 (clonogenic assay)
[20] = HCT-116, clonogenic assay, HCT116, average of N1-N3, read-out: GI50 AVG
[21] = HCT-116, clonogenic assay, HCT116, replicate N1, read-out: GI50 N1
[22] = HCT-116, clonogenic assay, HCT116, replicate N2, read-out: GI50 N2
[23] = HCT-116, clonogenic assay, HCT116, replicate N3, read-out: GI50 N3
[24] = HCT-15, 168 h, HCT15 cells, 1 week, read-out: GI50 (clonogenic assay)
[25] = HCT-15, clonogenic assay, HCT15, average of N1-N3, read-out: GI50 AVG
[26] = HCT-15, clonogenic assay, HCT15, replicate N1, read-out: GI50 N1
[27] = HCT-15, clonogenic assay, HCT15, replicate N2, read-out: GI50 N2
[28] = HCT-15, clonogenic assay, HCT15, replicate N3, read-out: GI50 N3
[29] = HT29 cells, 48 hours, read-out: GI50 (MTS assay)
[30] = MTS assay, HT29, 48 hours, replicate N1, read-out: GI50 N1
[31] = MTS assay, HT29, 48 hours, replicate N2, read-out: GI50 N2
[32] = MTS assay, HT29, 48 hours, replicate N3, read-out: GI50 N3
[33] = MTS assay, SW620, 48 hours, replicate N1, read-out: GI50 N1
[34] = MTS assay, SW620, 48 hours, replicate N2, read-out: GI50 N2
[35] = MTS assay, SW620, 48 hours, replicate N3, read-out: GI50 N3
[36] = SW620 cells, 48 hours, read-out: GI50 (MTS assay)
[37] = HCTl116 cells, 48 hours, read-out: GI50 (MTS assay)
[38] = MTS assay, HCT116, 48 hours, replicate N1, read-out: GI50 N1
[39] = MTS assay, HCT116, 48 hours, replicate N2, read-out: GI50 N2
[40] = MTS assay, HCT116, 48 hours, replicate N3, read-out: GI50 N3
[41] = HCT15 cells, 48 hours, read-out: GI50 (MTS assay)
[42] = MTS assay, HCT15, 48 hours, average of N1-N3, read-out: GI50 AVG
[43] = MTS assay, HCT15, 48 hours, replicate N1, read-out: GI50 N1
[44] = MTS assay, HCT15, 48 hours, replicate N2, read-out: GI50 N2
[45] = MTS assay, HCT15, 48 hours, replicate N3, read-out: GI50 N3
[46] = MTS assay, HT29, 48 hours, average of N1-N3, read-out: GI50 AVG
[47] = MTS assay, SW620, 48 hours, average of N1-N3, read-out: GI50 AVG

SMILES	GI50 (HT29 [1]; [9]) [µM]	GI50 (HT29 [1]; [10]) [µM]	GI50 (HT29 [1]; [11]) [µM]	GI50 (HT29 [1]; [12]) [µM]	GI50 (HT29 [1]; [13]) [µM]	GI50 (SW620 [2]; [14]) [µM]	GI50 (SW620 [2]; [15]) [µM]	GI50 (SW620 [2]; [16]) [µM]	GI50 (SW620 [2]; [17]) [µM]	GI50 (SW620 [2]; [18]) [µM]	GI50 (HCT116 [3]; [19]) [µM]	GI50 (HCT116 [3]; [20]) [µM]	GI50 (HCT116 [3]; [21]) [µM]	GI50 (HCT116 [3]; [22]) [µM]	GI50 (HCT116 [3]; [23]) [µM]	GI50 (HCT15 [4]; [24]) [µM]	GI50 (HCT15 [4]; [25]) [µM]	GI50 (HCT15 [4]; [26]) [µM]	GI50 (HCT15 [4]; [27]) [µM]	GI50 (HCT15 [4]; [28]) [µM]	other results
CCCCCc1cc(OC)c(C/C=C(\C)CCC=C(C)C)c(OC)c1 [Compound 2, (E)-2-(3,7-dimethylocta-2,6-dien-1-yl)-1,3-dimethoxy-5-pentylbenzene]	34.5 ± 14.4	34.5	51.1	25	27.3	41.7 ± 5.9	41.7	47.8	41.2	36	43.1 ± 7.68	43.1	53.4	40.6	35.1	35.9 ± 8.95	35.9	46.2	30.5	31	GI50 (HT29 [5]; [29]): > 80 µM; GI50 (HT29 [5]; [30]): > 80 µM; GI50 (HT29 [5]; [31]): > 80 µM; GI50 (HT29 [5]; [32]): > 80 µM; GI50 (SW620 [6]; [33]): > 80 µM; GI50 (SW620 [6]; [34]): > 80 µM; GI50 (SW620 [6]; [35]): > 80 µM; GI50 (SW620 [6]; [36]): > 80 µM; GI50 (HCT116 [7]; [37]): > 80 µM; GI50 (HCT116 [7]; [38]): > 80 µM; GI50 (HCT116 [7]; [39]): > 80 µM; GI50 (HCT116 [7]; [40]): > 80 µM; GI50 (HCT15 [8]; [41]): > 80 µM; GI50 (HCT15 [8]; [42]): 35.9 µM; GI50 (HCT15 [8]; [43]): > 80 µM; GI50 (HCT15 [8]; [44]): > 80 µM; GI50 (HCT15 [8]; [45]): > 80 µM
CCCCCc1cc(O)c(C/C=C(\C)CCC=C(C)C)c(O)c1 [CBG, cannabigerol]	9.09 ± 1.71	9.09	8.11	8.09	11.1	20.6 ± 1.95	20.6	18.9	22.7	20.1	17.4 ± 4.91	17.4	21.1	20.7	10.5	17.4 ± 2.89	17.4	15.6	20.7	15.9	GI50 (HT29 [5]; [29]): 43.6 ± 4.02 µM; GI50 (HT29 [5]; [46]): 43.6 µM; GI50 (HT29 [5]; [30]): 42.6 µM; GI50 (HT29 [5]; [31]): 48 µM; GI50 (HT29 [5]; [32]): 40.1 µM; GI50 (SW620 [6]; [47]): 39 µM; GI50 (SW620 [6]; [33]): 39.5 µM; GI50 (SW620 [6]; [34]): 39.4 µM; GI50 (SW620 [6]; [35]): 38 µM; GI50 (SW620 [6]; [36]): 40 ± 0.84 µM; GI50 (HCT116 [7]; [37]): 41.4 ± 1.87 µM; GI50 (HCT116 [7]; MTS assay, HCT116, 48 hours, average of N1-N3, read-out: GI50 AVG): 41.4 µM; GI50 (HCT116 [7]; [38]): 40 µM; GI50 (HCT116 [7]; [39]): 44.1 µM; GI50 (HCT116 [7]; [40]): 40.2 µM; GI50 (HCT15 [8]; [41]): 43.6 ± 5.74 µM; GI50 (HCT15 [8]; [42]): 43.6 µM; GI50 (HCT15 [8]; [43]): 50.2 µM; GI50 (HCT15 [8]; [44]): 30.2 µM; GI50 (HCT15 [8]; [45]): 40.7 µM
CCCCCc1cc(O)c(C/C=C(\C)CCC=C(C)C)c(OC)c1 [Compound 1, (E)-2-(3,7-dimethylocta-2,6-dien-1-yl)-3-methoxy-5-pentylphenol]	2.95 ± 1.41	2.95	1.33	3.87	3.66	5.35 ± 1.11	5.35	5.76	4.09	6.2	5.51 ± 1.51	5.51	4.79	7.61	4.12	5.03 ± 2.16	5.03	3.64	7.52	3.94	GI50 (HT29 [5]; [29]): 10.2 ± 0.4 µM; GI50 (HT29 [5]; [46]): 10.2 µM; GI50 (HT29 [5]; [30]): 9.84 µM; GI50 (HT29 [5]; [31]): 10.1 µM; GI50 (HT29 [5]; [32]): 10.6 µM; GI50 (SW620 [6]; [47]): 8.76 µM; GI50 (SW620 [6]; [33]): 8.47 µM; GI50 (SW620 [6]; [34]): 7.55 µM; GI50 (SW620 [6]; [35]): 10.3 µM; GI50 (SW620 [6]; [36]): 8.76 ± 1.38 µM; GI50 (HCT116 [7]; [37]): 10.3 ± 0.24 µM; GI50 (HCT15 [8]; [41]): 10 ± 0.52 µM; GI50 (HCT15 [8]; [42]): 10 µM; GI50 (HCT15 [8]; [43]): 10.1 µM; GI50 (HCT15 [8]; [44]): 9.46 µM; GI50 (HCT15 [8]; [45]): 10.5 µM
